Measurements: patent US20240130675A1, “Methods for Treating Autism Spectrum Disorder” (The General Hospital Corporation, priority 2021, published 2024)

How the values were obtained:
adults with HF-ASD = test: Uncontrolled (pilot) trial of memantine in adults with HF-ASD (Joshi et al., 2016); type: in vivo, human; settings: estimate from pilot study, used for sample size
Description: Memantine is a moderate-affinity, non-competitive, NMDA receptor antagonist that is approved by the U.S. Food and Drug Administration (FDA) for the treatment of moderate to severe Alzheimer's disease (U.S. FDA, 2003).
We determined a priori that we would need a sample size of 40 participants in total (20 participants per group) to detect this difference in response rate at a 2-sided significance level of 0.05 with 80% power. Our final sample consisted of 16 participants in the memantine group and 19 participants in the placebo group with response data. With this sample size, we had […] power to detect the aforementioned difference in response rates.

youth with ASD = test: 12-week randomized, double-blind, placebo-controlled trial: efficacy on autism related impairments (SRS-2, CGI-I, ABC-Social Withdrawal, CY-BOCS-PDD); type: in vivo, human; design: SRS-SCI / SRS-Social Cognition / SRS-Social Awareness / SRS-Social Motivation / SRS-Social Communication / SRS-Autistic Mannerisms / ABC-Social Withdrawal: scale not given here; settings: for ABC-Social Withdrawal / CY-BOCS-PDD / SRS-Autistic Mannerisms / SRS-SCI / SRS-Social Awareness / SRS-Social Cognition / SRS-Social Communication / SRS-Social Motivation / SRS-Total: MEM [N = 16]
Description: This study was a 12-week, randomized, double-blind, placebo-controlled, parallel group clinical trial of memantine in youth with ASD. Youth with ASD who met the eligibility criteria were randomized to receive either memantine or placebo during the course of the 12-week trial. Participants underwent multimodal MRI scans prior to and upon completion of the 12-week trial. Participants were assessed weekly during the titration phase (baseline to Week 4) and at midpoint (Week 6), Week 9, and completion (Week 12) during the maintenance phase. At each study visit, safety and efficacy were assessed by administering measures of efficacy (CGI, GAF), tolerability (assessing treatment-emergent AEs), and safety (vital signs, including weight). At baseline, midpoint, and endpoint (completion/early termination) severity of autism was assessed by administering measures of autism severity (SRS-2, ABC-SW, CY-BOCS-PDD) and associated psychopathology (ADHD-RS, CDRS-R, CASI-ANX).
Eligible participants were of both sexes, aged 8 to 17 years, with intact intellectual ability, as established by a full-scale intelligence quotient of 85 or greater based on the Vocabulary and Matrix Reasoning subtests of the Wechsler Abbreviated Scale of Intelligence-Second Edition (WASI-II (Wechsler, 2011)). Participants were required to meet DSM-IV-TR/5 diagnostic criteria for autism, as established by clinical diagnostic evaluation and to have at least moderate severity of ASD, as determined by a total raw score of 85 or greater on the informant-rated Social Responsiveness Scale-Second Edition (SRS-2; (Constantino et al., 2003)) and a score of 4 or greater on the clinician-rated National Institute of Mental Health (NIMH) Clinical Global Impression (CGI) severity scale (CGI-S; (National Institute of Mental Health, 1985)).
In this 12-week, randomized, double-blind, placebo-controlled, parallel group clinical, ASD participants were randomized in a 1:1 ratio to receive memantine or placebo. An independent statistician created a computer-generated randomization schedule, using stratified randomization by sex (male vs. female) and race (Caucasian vs. Non-Caucasian). The Clinical Trials Pharmacy at MGH dispensed the study medication (memantine and placebo) based on the randomization schedule. The randomization schedule remained confidential throughout the study.
Study medication was titrated to the maximum daily dose during the first 4 weeks of the trial (dose titration phase) and from there on, subjects were maintained on maximum achieved dose until the end of the trial (dose maintenance phase). Titration of the study medication was guided by a flexible titration schedule which allowed for slower titration or maintaining at a lower dose, as guided by study clinician judgment of tolerability. Study medication was administered in divided dosages. Study medication was initiated at 2.5 mg/day (raised to 5 mg/day on day 4) and was up-titrated by 5 mg/week to a maximum dose of 20 mg/day.
The efficacy of memantine for the treatment of autism related impairments was assessed by the informant-rated Social Responsiveness Scale—Second Edition (SRS-2) as continuous outcome measure, and by the clinician-rated CGI-I subscale, as categorical outcome measure. Treatment response criteria for this trial was defined as≥25% improvement on the SRS-2 and a score of 2 or 1 on the CGI-I subscale, i.e., “much” or “very much improved.”
Additional treatment response of autism impairment was examined for the ASD subdomains by assessing change with treatment in the severity of the SRS-2 subscales and the Children's Yale Brown Obsessive Compulsive Scale modified for PDD (CY-BOCS-PDD) (Goodman et al., 1986 (Rev 89); Scahill et al., 2006) to assess change with treatment in the ritualistic behaviors associated with ASD. […]

ASD behaviors = settings: 12 week, mean dose 5 mg/day; cited from earlier work

SMILES: CC12CC3CC(C)(C1)CC(N)(C3)C2 [MEM, memantine]
- Estimated share of participants on memantine responding to treatment (adults with HF-ASD): 57%
- SRS-Social Awareness, ES [95% CI] (youth with ASD; Cohen's d, MEM vs PBO): 0.74
- SRS-Social Cognition, ES [95% CI] (youth with ASD; Cohen's d, MEM vs PBO): 0.83
- ABC-Social Withdrawal (youth with ASD; BL (baseline)): 12.5 ± 8.6
- CY-BOCS-PDD (youth with ASD; BL (baseline)): 2.9 ± 5.4
- SRS-Autistic Mannerisms (youth with ASD; BL (baseline)): 21.1 ± 5.9
- SRS-SCI (youth with ASD; BL (baseline)): 93.5 ± 17.0
- SRS-Social Awareness (youth with ASD; BL (baseline)): 14.3 ± 3.0
- SRS-Social Cognition (youth with ASD; BL (baseline)): 20.0 ± 3.9
- SRS-Social Communication (youth with ASD; BL (baseline)): 40.1 ± 8.1
- SRS-Social Motivation (youth with ASD; BL (baseline)): 19.1 ± 6.9
- SRS-Total (youth with ASD; BL (baseline)): 114.5 ± 21.3
- ABC-Social Withdrawal (youth with ASD; EP (endpoint)): 5.6 ± 5.4
- CY-BOCS-PDD (youth with ASD; EP (endpoint)): 1.9 ± 4.0
- SRS-Autistic Mannerisms (youth with ASD; EP (endpoint)): 13.4 ± 3.8
- SRS-SCI (youth with ASD; EP (endpoint)): 63.8 ± 20.0
- SRS-Social Awareness (youth with ASD; EP (endpoint)): 10.7 ± 3.0
- SRS-Social Cognition (youth with ASD; EP (endpoint)): 13.7 ± 4.5
- SRS-Social Communication (youth with ASD; EP (endpoint)): 27.0 ± 10.4
- SRS-Social Motivation (youth with ASD; EP (endpoint)): 12.4 ± 5.7
- SRS-Total (youth with ASD; EP (endpoint)): 77.0 ± 22.5
- ABC-Social Withdrawal (youth with ASD; MD (mean difference)): −6.9 ± 7.0
- CY-BOCS-PDD (youth with ASD; MD (mean difference)): −0.9 ± 2.1
- SRS-Autistic Mannerisms (youth with ASD; MD (mean difference)): −7.8 ± 6.4
- SRS-SCI (youth with ASD; MD (mean difference)): −29.8 ± 22.2
- SRS-Social Awareness (youth with ASD; MD (mean difference)): −3.6 ± 3.9
- SRS-Social Cognition (youth with ASD; MD (mean difference)): −6.3 ± 5.6
- SRS-Social Communication (youth with ASD; MD (mean difference)): −13.0 ± 9.4
- SRS-Social Motivation (youth with ASD; MD (mean difference)): −6.8 ± 5.4
- SRS-Total (youth with ASD; MD (mean difference)): −37.6 ± 27.9
- ≥25% ↓↓SRS + CGI-I ≤ 2, ES [95% CI] (youth with ASD; Odds Ratio, MEM vs PBO): 4.82
- ASD behaviors relative to placebo response (ASD behaviors): no improvement in ASD behaviors
